Results on three compounds are retold here after article PMC10288853 (Frontiers in Oncology, 2023).

Data set [1] concerns patients with metastatic uveal melanoma. Briefly: Safety and tolerability: adverse events in phase Ib patients. Particulars: given in the combination, all patients.
Procedure: Treated patients were assessed for toxicity by physical examinations on a weekly basis during cycle 1 and on day 1 of each subsequent cycle, with laboratory assessments and ECGs performed on cycle 1 day 1, cycle 1 day 15, and on day 1 of each subsequent cycle. Patients underwent imaging studies for response evaluation during screening and after every 2 cycles of treatment.
Data set [2] is described as follows: Plasma pharmacokinetics by LC-MS/MS. Particulars: for AUC(0-t) / Cmax / Tmax: human, plasma, oral; for Cmax: Median Cmax [Min; for Tmax: Median Tmax [Min.
Procedure: (§1) Samples were collected on days 1, 8, 15 and 22 of cycle 1, and pre-dose on day 1 of cycles 2 through 6. Plasma concentrations were measured using a validated liquid chromatography-tandem mass spectrometry assay. The lower limit of quantification (LLOQ) was 3.0 ng/mL for sotrastaurin and its metabolite AEE800. […] Concentrations below the LLOQ were treated as zero in summary statistics.
(§2) The PK analyses used the actual dose received for each particular PK profile. Parameters relating to the PK profile (e.g., AUC and Cmax) were summarized for data collected on C1D1 and C1D15.
A short description of the next data set: clinical. The following applies: human, in vivo, median AUC0-8hr of sotrastaurin.
For data set [3] the following is noted: human, in vivo.
Procedure: as §1, §2
Data set [4] has as its system metastatic uveal melanoma. The arrangement: method as in PMID 34551229, PMID 35254876. Particulars: previously untreated HLA-A*0201 positive patients, versus best alternative care; ref [6], [7]; cited from earlier work.
The mark [5] stands for this setting: b.i.d. dosing in combination with sotrastaurin.
[6] abbreviates: Max], plasma binimetinib, 2nd section, Cycle 1 Day 1 (C1D1), Dose Level 1: AEB071 150 mg bid and MEK162 45 mg bid.
The mark [7] stands for this setting: Max], plasma binimetinib, 2nd section, Cycle 1 Day 1 (C1D1), Dose Level 3: AEB071 300 mg bid and MEK162 30 mg bid.
The mark [8] stands for this setting: Max], plasma binimetinib, 2nd section, Cycle 1 Day 1 (C1D1), Dose Level 4: AEB071 300 mg bid and MEK162 45 mg bid.
Where [9] appears, read: Max], plasma binimetinib, 2nd section, Cycle 1 Day 1 (C1D1), Dose Level 5: AEB071 350 mg bid and MEK162 30 mg bid.
Setting [10] is: Max], plasma binimetinib, 2nd section, Cycle 1 Day 1 (C1D1), Dose Level 6: AEB071 400 mg bid and MEK162 30 mg bid.
Setting [11] is: Max], plasma binimetinib, Cycle 1 Day 1 (C1D1), Dose Level 1: AEB071 150 mg bid and MEK162 45 mg bid.
[12] abbreviates: Max], plasma binimetinib, Cycle 1 Day 1 (C1D1), Dose Level 2: AEB071 200 mg bid and MEK162 45 mg bid.
The mark [13] stands for this setting: Max], plasma binimetinib, Cycle 1 Day 1 (C1D1), Dose Level 3: AEB071 300 mg bid and MEK162 30 mg bid.
[14] abbreviates: Max], plasma binimetinib, Cycle 1 Day 1 (C1D1), Dose Level 4: AEB071 300 mg bid and MEK162 45 mg bid.
Setting [15] is: Max], plasma binimetinib, Cycle 1 Day 1 (C1D1), Dose Level 5: AEB071 350 mg bid and MEK162 30 mg bid.
The mark [16] stands for this setting: Max], plasma binimetinib, Cycle 1 Day 1 (C1D1), Dose Level 6: AEB071 400 mg bid and MEK162 30 mg bid.

As a reminder, the AUC(0-t) is the area under the concentration-time curve up to a stated or last time point. The term Cmax denotes the peak of the concentration-time curve. Broadly, the Tmax is the time at which the peak concentration occurs.

“And” between values parts separate entries of the source, which are not always exact repeats. Equal entries are not always repeated.

Procedure for clinical: as §1, §2

Regarding `Cn1cnc2c(F)c(Nc3ccc(Br)cc3F)c(C(=O)NOCCO)cc21` [binimetinib], the Dose reductions applied in data set [1] stood at 65.8%. In addition, in data set [2] (setting [5]), the “median RACC of binimetinib, other three dose levels lower than or close to 1” value was 0.76 and 0.78 and 1.08. In addition, the “median RACC of binimetinib, three dose levels much higher than 1” value in data set [2] (setting [5]) was 1.34 and 1.42 and 1.54. Moreover, the AUC(0-t) was 1210 to 1450 ng·h/mL in data set [2] (30 mg, median AUC0-8hr range of binimetinib, cycle 1 day 15, binimetinib 30 mg b.i.d. with varying doses of sotrastaurin); 1480 to 2140 ng·h/mL in data set [2] (45 mg, median AUC0-8hr range of binimetinib, cycle 1 day 15, binimetinib 45 mg b.i.d. with varying doses of sotrastaurin); 2000 ng·h/mL in data set [2] (Median AUC0–8hr [Min, Max], plasma binimetinib, 2nd section, Cycle 1 Day 1 (C1D1), Dose Level 1: AEB071 150 mg bid and MEK162 45 mg bid); 1210 ng·h/mL in data set [2] (Median AUC0–8hr [Min, Max], plasma binimetinib, 2nd section, Cycle 1 Day 1 (C1D1), Dose Level 3: AEB071 300 mg bid and MEK162 30 mg bid); 1480 ng·h/mL in data set [2] (Median AUC0–8hr [Min, Max], plasma binimetinib, 2nd section, Cycle 1 Day 1 (C1D1), Dose Level 4: AEB071 300 mg bid and MEK162 45 mg bid); 1250 ng·h/mL in data set [2] (Median AUC0–8hr [Min, Max], plasma binimetinib, 2nd section, Cycle 1 Day 1 (C1D1), Dose Level 5: AEB071 350 mg bid and MEK162 30 mg bid). Further, the AUC(0-t) in data set [2] (Median AUC0–8hr [Min, Max], plasma binimetinib, 2nd section, Cycle 1 Day 1 (C1D1), Dose Level 6: AEB071 400 mg bid and MEK162 30 mg bid) was 1450 ng·h/mL; in data set [2] (Median AUC0–8hr [Min, Max], plasma binimetinib, Cycle 1 Day 1 (C1D1), Dose Level 1: AEB071 150 mg bid and MEK162 45 mg bid) it was 1540 ng·h/mL; in data set [2] (Median AUC0–8hr [Min, Max], plasma binimetinib, Cycle 1 Day 1 (C1D1), Dose Level 2: AEB071 200 mg bid and MEK162 45 mg bid), 1550 ng·h/mL; in data set [2] (Median AUC0–8hr [Min, Max], plasma binimetinib, Cycle 1 Day 1 (C1D1), Dose Level 3: AEB071 300 mg bid and MEK162 30 mg bid), 1130 ng·h/mL; in data set [2] (Median AUC0–8hr [Min, Max], plasma binimetinib, Cycle 1 Day 1 (C1D1), Dose Level 4: AEB071 300 mg bid and MEK162 45 mg bid) it was 1610 ng·h/mL; in data set [2] (Median AUC0–8hr [Min, Max], plasma binimetinib, Cycle 1 Day 1 (C1D1), Dose Level 5: AEB071 350 mg bid and MEK162 30 mg bid), 1260 ng·h/mL. For the same compound, the AUC(0-t) in data set [2] (Median AUC0–8hr [Min, Max], plasma binimetinib, Cycle 1 Day 1 (C1D1), Dose Level 6: AEB071 400 mg bid and MEK162 30 mg bid) amounted to 985 ng·h/mL. For the same compound, the peak concentration (Cmax) came to 493 ng/mL in data set [2] (setting [6]); 410 ng/mL in data set [2] (Max], plasma binimetinib, 2nd section, Cycle 1 Day 1 (C1D1), Dose Level 2: AEB071 200 mg bid and MEK162 45 mg bid); 246 ng/mL in data set [2] (setting [7]); 391 ng/mL in data set [2] (setting [8]); 280 ng/mL in data set [2] (setting [9]); 346 ng/mL in data set [2] (setting [10]). Further, the Cmax in data set [2] (setting [11]) was determined as 366 ng/mL; in data set [2] (setting [12]), 450 ng/mL; in data set [2] (setting [13]) it was 213 ng/mL; in data set [2] (setting [14]), 370 ng/mL; in data set [2] (setting [15]) it was 259 ng/mL; in data set [2] (setting [16]) it was 279 ng/mL. Besides, the Tmax in data set [2] (setting [6]) amounted to 2 h; in data set [2] (setting [7]), 3 h; in data set [2] (setting [8]), 2.9 h; in data set [2] (setting [9]) it was 1.9 h; in data set [2] (setting [10]), 1.5 h; in data set [2] (setting [11]), 1.1 h. For the same compound, the Tmax was 1.1 h in data set [2] (setting [12]); 2 h in data set [2] (setting [13]); 4 h in data set [2] (setting [14]); 2 h in data set [2] (setting [15]); 1.1 h in data set [2] (setting [16]). Besides, the “Median AUC0–8hr [Min; Max]” value in data set [2] (plasma binimetinib, 2nd section, Cycle 1 Day 1 (C1D1), Dose Level 2: AEB071 200 mg bid and MEK162 45 mg bid) was 2137.7 [1121.6; 2772.3] hr*ng/ml.
`CN1CCN(c2nc(C3=C(c4c[nH]c5ccccc45)C(=O)NC3=O)c3ccccc3n2)CC1` [sotrastaurin]: the Dose reductions applied in data set [1] is 76.3%. Besides, the values for the AUC(0-t) in “clinical” (150 mg) and in “clinical” (400 mg) were 6070 ng·h/mL and 21600 ng·h/mL, respectively. For the same compound, the “accumulation of sotrastaurin following b.i.d. dosing” value in data set [2] (exposure on day 15 compared with day 1) is “no observed accumulation”. Besides, in data set [3], the “median RACC, range at different doses of sotrastaurin” value is 0.72-1.15.
In the case of “tebentafusp: agent improving overall survival in previously untreated HLA-A*0201 positive metastatic uveal melanoma patients”, in data set [4], the “hazard ratio for death” value was 0.51 and the “reduction in the risk of death” value was 49%.
